From US20200345021A1, “METHOD AND SYSTEM FOR ENHANCING THE EFFICACY USING IONIZED/A[…] PEROXIDE IN REDUCING MICROBIAL POPULATIONS, METHOD OF USE THEREOF” (priority 2019, published 2020)
Where two headings read alike, the source gives them in different places. Marks after values point to notes of the source that are not given here.

Columns and labels:
[1] = Text: Specifically, a scanning mobility particle sizer (SMPS Model 3080, TSI inc., Shoreview, Minn., USA) and an aerodynamic particle sizer (APS Model 3321, TSI Inc.) were connected to the treatment chamber through an access port in the back of the treatment chamber to measure droplet sizes ranging from 2.5 to 210 nm, and from 0.5 to 20 μm, respectively.
[2] = tested on: Salmonella Typhimurium; assay type: cell-based; details: for Reductions of Salmonella, range over the fresh produce items: all tested produce items and surfaces, optimized conditions
Text: To minimize the risk of possible bacteria becoming airborne during treatments, attenuated and non-pathogenic bacteria were used in the study. Two strains of non-pathogenic S. Typhimurium (ATCC 53647 and 53648) and three strains of L. innocua (ATCC 33090, ATCC 51742 and ATCC BAA680) were obtained from American Type Culture Collection (ATCC) (Manassas, Va., USA). Further studies used E. coli O157:H7 (ATCC 700728), S. Typhimurium (ATCC 53647 and 53648), and L. innocua (ATCC 33090) obtained from American Type Culture Collection (ATCC) (Manassas, Va., USA) and maintained as a part of the culture collection at the USDA Eastern Regional Research Center (Wyndmoor, Pa. USA). The bacteria were made to be resistant to nalidixic acid by successive growth in Trypic Soy Broth (TSB) (Difco, Sparks, Md., USA) with increasing nalidixic acid concentrations. All strains were stored at −80° C. in 1 mL of TSB containing 10% glycerol. Working cultures of S. Typhimurium and L. innocua were maintained in 9 mL TSB (supplemented with 100 μg/mL nalidixic acid for S. Typhimurium) at 4° C. after incubating at 37° C. for […], respectively, and sub-cultured each time.
Each strain of S. Typhimurium and L. innocua was cultured in 9 mL TSB (supplemented with 100 μg/mL nalidixic acid for S. Typhimurium) and incubated at 37° C. for 40 h and 48 h, respectively, harvested by centrifugation at 4000×g for 10 min at 4° C., and resuspended in 9 mL sterile Buffered Peptone Water (BPW; Difco). The pellets were resuspended in BPW to form cell suspensions with a final concentration of 108˜10^9 CFU/mL. Subsequently, suspended pellets of two strains of Salmonella and three strains of L. innocua were combined to obtain two separate culture cocktails.
Grape tomatoes, granny smith apples, romaine lettuce and cantaloupes were purchased from local markets (Philadelphia, Pa., USA) and kept at 10° C. prior to use. Fruits and vegetables were removed from 10° C. refrigeration and equilibrated to ambient temperature before being inoculated. Romaine lettuce was divided into upper green leaf and midrib tissues. Six tomatoes, six pieces (2×2 cm) of apple skins, five pieces (3×3 cm) of Romaine lettuce upper leaves, five pieces (3 cm length) of Romaine lettuce midrib area and six pieces (2×2 cm) of cantaloupe rinds with 2×3 mm thickness of flesh were used for each treatment per replicate. Bach piece w as spot inoculated with 10 μL of Salmonella and L. innocua by depositing droplets with a micropipette. The inoculated samples were dried in a bio-hood for 1 h (for tomato surfaces, romaine lettuce, apple skins and cantaloupe rinds) or 2 h (for tomato stem scars) at ambient temperature.
Produce items were placed onto a sterile test tube rack with the inoculated area facing up and the rack with produce pieces were placed inside of a treatment chamber (12×12×24 inch).
Therefore, each kind of produce was treated with and without cold plasma ionized under the same optimized conditions.
After each treatment, the tomato stem scars and surfaces with the inoculated bacteria were removed using a pair of sterile scissors. Each type of produce item from the same treatment was combined (total weight: 1.51±0.29 g for tomato stem scars; 2.07±0.15 g for tomato surfaces; 6.37±0.92 g for apple skins; 1.62±0.34 g for Romaine lettuce upper leaves: 13.30±2.97 g for Romaine lettuce midrib tissues: 9.58±1.26 g for cantaloupe rinds) and transferred into an 80 mL filtered stomacher bag. After addition of 30 mL BBL buffered peptone water into the bag, the sample in the bag was homogenized using a mini blender (Mini Mix CC, Interscience laboratories Inc., Woburn, Mass., USA) for 2 min at a setting of 4. […] Tryptic Soy Agar with 200 μg/mL pyruvate acid and 100 μg/mL nalidixic acid (TSA-PN) and PALCAM Agars (Difco) were used for the enumeration of S. Typhimurium and L. innocua, respectively.

[3] = tested on: E. coli O157:H7
[4] = tested on: S. Typhimurium
[5] = tested on: total aerobic plate count (APC), native microorganisms; details: for Total plate count: not inoculated
Experimental: (§1) The untreated (control) and treated samples were placed separately in a Stomacher bag with 20˜100 ml of neutralizing buffer and pummeled at 260 rpm for 2 mm using Stomacher (Interscience Laboratories Inc.). Decimal dilutions of the samples were made with 0.1% peptone (Difco) and aliquots (0.1 or 1 ml) were spread plated in duplicate onto TSA with incubation at 37° C. for 24 h for the enumeration of total aerobic plate count (APC), and onto Dichloran Rose Bengal Chlortetracycline (DRBC, Difco) agar with incubation at 25° C. for 5 days for enumeration of yeast and mold. DRBC plates were wrapped with aluminum foil to […]. Experiments were conducted independently 8 times. Colonies were counted and reported as log CFU/piece.
(§2) Produce items were placed onto a sterile test tube tack with inoculated area facing up. […] The distance and voltage between the two electrodes were 9 mm and 17 kV, respectively. […] After 45 s treatment, the chamber was sealed for 30 mins (dwell time) before removal of the fresh produce items. Experiment; were repeated three times.

[6] = tested on: yeast and mold; details: for Yeast and mold count: not inoculated
Experimental: as §1, §2

[7] = treatment chamber, immediately after introduction
[8] = Cantaloupe rind, 30 s spray time + 30 min dwell, listed as H2O2 + cold plasma
[9] = Romaine lettuce-midrib, 30 s spray time + 30 min dwell, listed as H2O2 + cold plasma
[10] = Romaine lettuce-upper leaf, 30 s spray time + 30 min dwell, listed as H2O2 + cold plasma
[11] = Tomato-stem scar, three cycles of 20 s spray time plus 20 min dwell time, listed as H2O2 + cold plasma

## OO [H2O2, hydrogen peroxide]
[1]; after 30 min (end of treatment)
  Nanosize droplets remained in the treatment chamber: about 8%
[1]; micrometer range, immediately after introduction
  Share of droplets in the range of <5 μm: About 80%
[1]; [7]
  Mean diameter of droplets in the micrometer range: 3.0 μm
  Mean diameter of nanosize droplets: 40.3 nm
  Mode (peak) of nanosize droplets: 33.4 nm
  Mode of droplets in the micrometer range: 4.0 μm
  Total number of droplets in micrometer range (0.5-20 μm): 4390 #/cc
  Total number of droplets in the nanosize range: 84,000 #/cc
[2]; [8]
  Populations of Salmonella Typhimurium: 3.76 ± 0.53^c log CFU/piece
  Reductions of Salmonella Typhimurium: 2.61 ± 0.53^x log CFU/piece
[2]; Granny Smith apples, 8 s spray time + 30 min dwell, listed as H2O2 + cold plasma
  Reductions of Salmonella Typhimurium: 5.50 ± 0.19^x log CFU/piece
[2]; Granny Smith apples, 8 s spray time + 30 min dwell, listed as iHP
  Reductions of Salmonella Typhimurium: > 5 log CFU/piece
[2]; [9]
  Populations of Salmonella Typhimurium: 2.54 ± 0.32^c log CFU/piece
  Reductions of Salmonella Typhimurium: 3.40 ± 0.32^x log CFU/piece
[2]; [10]
  Populations of Salmonella Typhimurium: 3.54 ± 0.11^c log CFU/piece
  Reductions of Salmonella Typhimurium: 2.88 ± 0.11^x log CFU/piece
[2]; [11]
  Populations of Salmonella Typhimurium: 3.60 ± 0.70^c log CFU/piece
  Reductions of Salmonella Typhimurium: 2.35 ± 0.30^x log CFU/piece
[2]; Tomato-surface, 8 s spray time + 30 min dwell, listed as H2O2 + cold plasma
  Reductions of Salmonella Typhimurium: 5.28 ± 0.49^x log CFU/piece
[2]; Tomato-surface, 8 s spray time + 30 min dwell, listed as iHP
  Reductions of Salmonella Typhimurium: > 5 log CFU/piece
[2]; listed as hydrogen peroxide (H2O2) with cold plasma
  Reductions of Salmonella, range over the fresh produce items: 2.35-5.50 log CFU/piece
[2]; listed as iHP
  Reductions of Salmonella, range over the fresh produce items: 2.35-5.50 log CFU/piece
[3]
  Reduction of E. coli populations: 1.5 log
[4]
  Reduction of Salmonella: 4.2 log CFU/leaf
[5]; cantaloupe
  Total plate count: 4.6 +/− 1.2a Log CFU/piece
[5]; spinach leaves
  Reduction in APC: 1.3 log
[5]; spinach
  Total plate count: 4.7 +/− 1.3b Log CFU/piece
[5]; tomato
  Total plate count: 5.4 +/− 0.5b Log CFU/piece
[5]; tomatoes
  Reduction in APC: 0.5 log
[6]; cantaloupe
  Yeast and mold count: 4.7 +/− 0.9a Log CFU/piece
[6]; spinach
  Reduction of yeast and mold count: 2.2 log
  Yeast and mold count: 4.2 +/− 2.0b Log CFU/piece
[6]; tomato
  Reduction of yeast and mold count: 3.9 log
  Yeast and mold count: 2.2 +/− 1.5b Log CFU/piece
